Experiments:
[1] = tested on: HCV genotype 1a (strain H77S.3) full-length reporter viral RNA; assay: microbe, parasite or virus in culture; format: cell-based, Hepatitis C virus
[2] = tested on: subgenomic replicon of HCV GT 3a (strain S52); assay: Anti-HCV luciferase assay, genotype 3a replicon in Huh7.5-3a cells; format: cell-based; details: Hepatitis C virus, GT3A, read-out: Gt3a EC50
Experimental: Specifically, we determined the activity of 10a against viral replication by measuring luciferase activity in Huh7-JFH1, Huh7.5-3a, and Huh7.5-4a stable cell lines containing subgenomic replicons of HCV GT 2a (strain JFH1), GT 3a (strain S52) and GT 4a (strain ED43), respectively. In addition, the activity of 10a was determined in Huh7-Lunet cells electroporated with the in vitro transcribed full-length reporter viral RNA of HCV genotype 1a (strain H77S.3). […]
The anti-HCV assay in replicon cells was performed by seeding 1 × 10^4 cells per well in a 96-well plate. […] Cells were lysed after 72 h, and F-Luc activity was measured. […] At 72 h post-treatment, cell supernatants were collected, and G-Luc activity was measured. In addition, the cells were lysed for total protein quantification.
Relative luminescence units (RLU) were expressed as a percentage of the respective units derived from DMSO-treated cells (control). […]
The F-Luc activity was measured using the Luciferase Assay System (Promega, Madison, WI, USA), as recommended by the manufacturer. The G-Luc activity was measured using 12 μM coelenterazine (Promega) in assay buffer (50 mM potassium phosphate, pH 7.4, 500 mM NaCl, 1 mM EDTA). […] The F-Luc activity was normalized to the total protein amount determined using the Bradford assay reagent (Pierce, Waltham, MA, USA).

## COC(=O)N[C@@H](C(=O)N1CCC[C@H]1c1ncc(-c2cccc(C#CC#Cc3cccc(-c4cnc([C@@H]5CCCN5C(=O)[C@H](NC(=O)OC)c5ccccc5)[nH]4)c3)c2)[nH]1)c1ccccc1 [Compound 10a, Dimethyl ((1R,1′R)-((2S,2′S)-((buta-1,3-diyne-1,4-diylbis(3,1-phenylene))bis(1H-imidazole-5,2-diyl))bis(pyrrolidine-2,1-diyl))bis(2-oxo-1-phenylethane-2,1-diyl))dicarbamate]
[1]; HCV 1a (H77) full length
  Gt1a SI: >2792.52
[1]; Hepatitis C virus, Huh-7, 72 h, read-out: Gt1a EC50
  EC50: 35.8 nM
[2]
  EC50: 128 nM

— paper PMC9146377, “Design and Synthesis of Novel Bis-Imidazolyl Phenyl Butadiyne Derivatives as HCV NS5A Inhibitors” (Pharmaceuticals, 2022)
